From US6737383B1, “Herbicidal oxadiazolidines” (priority 1999, dated 2004)

What was measured:
bedstraw = experiment: Test B pre/postemergence bedstraw; format: in vivo, Galium aparine
Procedure, shortened: (§1)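 Response is a visual 0-to-10 score relative to untreated plants, where 0 means no effect and 10 means complete control, taken twelve to sixteen days after application. Treatments went onto soil at planting and onto foliage of 1- to 4-leaf plants, using a surfactant-containing non-phytotoxic solvent.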

sugar beet = experiment: Test B pre/postemergence sugar beet; format: in vivo, Beta vulgaris
Procedure, shortened: as §1

purple nutsedge = experiment: Test B pre/postemergence purple nutsedge; format: in vivo, Cyperus rotundus
Procedure, shortened: as §1

rape = experiment: Test B pre/postemergence rape; format: in vivo, Brassica napus
Procedure, shortened: as §1

crabgrass = experiment: Test B pre/postemergence crabgrass; format: in vivo, Digitaria sanguinalis
Procedure, shortened: as §1

pigweed = experiment: Test B pre/postemergence pigweed; format: in vivo, Amaranthus retroflexus
Procedure, shortened: as §1

rice = experiment: Test B flood test rice; format: in vivo, Oryza sativa
Procedure, shortened: (§2)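 Read-out is a visual response score from 0 (no effect) to 10 (complete control), assigned by comparison with untreated controls. Treatment was applied at the 2-leaf stage, and plants stayed in the greenhouse for twelve to sixteen days before scoring.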

duck salad = experiment: Test B flood test duck salad; format: in vivo, Heteranthera limosa
Procedure, shortened: as §2

soybean = experiment: Test B pre/postemergence soybean; format: in vivo, Glycine max
Procedure, shortened: as §1

blackgrass = experiment: Test B pre/postemergence blackgrass; format: in vivo, Alopecurus myosuroides
Procedure, shortened: as §1

smallflower flatsedge = experiment: Test B flood test smallflower flatsedge; format: in vivo, Cyperus difformis
Procedure, shortened: as §2

surinam grass = experiment: Test B pre/postemergence surinam grass; format: in vivo, Brachiaria decumbens
Procedure, shortened: as §1

corn = experiment: Test B pre/postemergence corn; format: in vivo, Zea mays
Procedure, shortened: as §1

velvetleaf = experiment: Test B pre/postemergence velvetleaf; format: in vivo, Abutilon theophrasti
Procedure, shortened: as §1

wheat = experiment: Test B pre/postemergence wheat; format: in vivo, Triticum aestivum
Procedure, shortened: as §1

wild oat = experiment: Test B pre/postemergence wild oat; format: in vivo, Avena fatua
Procedure, shortened: as §1

[1] = Preemergence, Rate 62 g/ha, scale of 0 to 10 where 0 is no effect and 10 is complete control
[2] = Preemergence, Rate 125 g/ha, 0 is no effect, 10 is complete control
[3] = Preemergence, Rate 250 g/ha, scale 0 to 10, 0 is no effect, 10 is complete control
[4] = Preemergence, Rate 500 g/ha, scale of 0 to 10 where 0 is no effect and 10 is complete control
[5] = Rate 62 g/ha, Postemergence, scale of 0 to 10 where 0 is no effect and 10 is complete control
[6] = Rate 125 g/ha, Postemergence, scale 0 to 10
[7] = Rate 500 g/ha, Postemergence, scale 0 to 10
[8] = Rate 62 g/ha, headed Pre-emergence (flood test species), scale 0 to 10 (0 no effect, 10 complete control)
[9] = Rate 125 g/ha, Pre-emergence, flood test species, scale 0 to 10 where 0 is no effect and 10 is complete control
[10] = Rate 250 g/ha, Pre-emergence, flood-test species, scale 0 to 10, 0 is no effect, 10 is complete control
[11] = Rate 500 g/ha, headed Pre-emergence (flood test species), scale 0 to 10 (0 no effect, 10 complete control)

C=CCn1c(=O)on(C(=O)N(c2ccc(F)cc2)C2CCC2)c1=O [Compound 194]
8: Redroot pigweed plant response rating (pigweed; [3]) | Plant response rating, Blackgrass (blackgrass; [4]) | Plant response rating, Wild oats (wild oat; [4])
4: Crabgrass plant response rating (crabgrass; [1])
5: Redroot pigweed plant response rating (pigweed; [1])
2: Sugarbeets plant response rating (sugar beet; [3]) | Rape plant response rating (rape; [3]) | Rape plant response rating (rape; [7]) | Crabgrass plant response rating (crabgrass; [7]) | Blackgrass plant response rating (0 to 10 scale) (blackgrass; [2]) | Plant response rating (0 to 10; 0 is no effect, 10 is complete control), Blackgrass (blackgrass; Rate 250 g/ha, Postemergence) | Plant response rating, Wheat (wheat; [4])
9: Crabgrass plant response rating (0 to 10 scale) (crabgrass; [2]) | Crabgrass plant response rating (crabgrass; [3])
10: Plant response rating, Bedstraw (bedstraw; [4]) | Plant response rating, Redroot pigweed (pigweed; [4])
3: Plant response rating, Sugarbeets (sugar beet; [4]) | Blackgrass plant response rating (blackgrass; [3]) | Blackgrass plant response rating (blackgrass; [7]) | Plant response rating, B. signalgrass (surinam grass; [4]) | B. signalgrass plant response rating (surinam grass; Rate 500 g/ha, Postemergence, scale 0 to 10, 0 no effect, 10 complete control) | Plant response rating, Velvetleaf (velvetleaf; [4]) | Wild oats plant response rating (wild oat; [3])
0: Bedstraw plant response rating (bedstraw; [1]) | Bedstraw plant response rating (0 to 10 scale) (bedstraw; [2]) | Bedstraw plant response rating (bedstraw; [3]) | Bedstraw plant response rating (bedstraw; [5]) | Bedstraw plant response rating (bedstraw; [6]) | Plant response rating (0 to 10; 0 is no effect, 10 is complete control), Bedstraw (bedstraw; Rate 250 g/ha, Postemergence) | Bedstraw plant response rating (bedstraw; [7]) | Sugarbeets plant response rating (sugar beet; [1]) | Sugarbeets plant response rating (0 to 10 scale) (sugar beet; [2]) | Sugarbeets plant response rating (sugar beet; [5]) | Sugarbeets plant response rating (sugar beet; [6]) | Plant response rating (0 to 10; 0 is no effect, 10 is complete control), Sugarbeets (sugar beet; Rate 250 g/ha, Postemergence) | Sugarbeets plant response rating (sugar beet; [7]) | Nutsedge plant response rating (purple nutsedge; [1]) | Nutsedge plant response rating (purple nutsedge; [3]) | Plant response rating, Nutsedge (purple nutsedge; [4]) | Nutsedge plant response rating (purple nutsedge; [5]) | Nutsedge plant response rating (purple nutsedge; [6]) | Plant response rating (0 to 10; 0 is no effect, 10 is complete control), Nutsedge (purple nutsedge; Rate 250 g/ha, Postemergence) | Nutsedge plant response rating (purple nutsedge; [7]) | Rape plant response rating (rape; [1]) | Rape plant response rating (0 to 10 scale) (rape; [2]) | Rape plant response rating (rape; [5]) | Rape plant response rating (rape; [6]) | Plant response rating (0 to 10; 0 is no effect, 10 is complete control), Rape (rape; Rate 250 g/ha, Postemergence) | Crabgrass plant response rating (crabgrass; [5]) | Crabgrass plant response rating (crabgrass; [6]) | Plant response rating (0 to 10; 0 is no effect, 10 is complete control), Crabgrass (crabgrass; Rate 250 g/ha, Postemergence) | Redroot pigweed plant response rating (pigweed; [5]) | Redroot pigweed plant response rating (pigweed; [6]) | Plant response rating (0 to 10; 0 is no effect, 10 is complete control), Redroot pigweed (pigweed; Rate 250 g/ha, Postemergence) | Redroot pigweed plant response rating (pigweed; [7]) | Rice plant response rating (rice; [8]) | Rice plant response rating (rice; [9]) | Rice plant response rating (rice; [10]) | Plant response rating, Rice (rice; [11]) | Ducksalad plant response rating (duck salad; [8]) | Ducksalad plant response rating (duck salad; [9]) | Ducksalad plant response rating (duck salad; [10]) | Plant response rating, Ducksalad (duck salad; [11]) | Soybean plant response rating (soybean; [1]) | Soybean plant response rating (0 to 10 scale) (soybean; [2]) | Soybean plant response rating (soybean; [3]) | Plant response rating, Soybean (soybean; [4]) | Soybean plant response rating (soybean; [5]) | Soybean plant response rating (soybean; [6]) | Plant response rating (0 to 10; 0 is no effect, 10 is complete control), Soybean (soybean; Rate 250 g/ha, Postemergence) | Blackgrass plant response rating (blackgrass; [1]) | Blackgrass plant response rating (blackgrass; [5]) | Blackgrass plant response rating (blackgrass; [6]) | S. Flatsedge plant response rating (smallflower flatsedge; [8]) | S. Flatsedge plant response rating (smallflower flatsedge; [9]) | S. Flatsedge plant response rating (smallflower flatsedge; [10]) | S. Flatsedge plant response rating (smallflower flatsedge; Rate 500 g/ha, Pre-emergence, flood test species, scale 0 to 10 (0 no effect, 10 complete control)) | B. signalgrass plant response rating (surinam grass; [1]) | B. signalgrass plant response rating (0 to 10 scale) (surinam grass; [2]) | B. signalgrass plant response rating (surinam grass; [3]) | B. signalgrass plant response rating (surinam grass; [5]) | B. signalgrass plant response rating (surinam grass; Rate 125 g/ha, Postemergence, scale 0 (no effect) to 10 (complete control)) | Plant response rating, B. signalgrass (surinam grass; Rate 250 g/ha, Postemergence, scale 0 to 10, 0 is no effect, 10 is complete control) | Corn plant response rating (corn; [1]) | Corn plant response rating (0 to 10 scale) (corn; [2]) | Corn plant response rating (corn; [3]) | Plant response rating, Corn (corn; [4]) | Corn plant response rating (corn; [5]) | Corn plant response rating (corn; [6]) | Plant response rating (0 to 10; 0 is no effect, 10 is complete control), Corn (corn; Rate 250 g/ha, Postemergence) | Corn plant response rating (corn; [7]) | Velvetleaf plant response rating (velvetleaf; [1]) | Velvetleaf plant response rating (velvetleaf; [3]) | Velvetleaf plant response rating (velvetleaf; [5]) | Velvetleaf plant response rating (velvetleaf; [6]) | Plant response rating (0 to 10; 0 is no effect, 10 is complete control), Velvetleaf (velvetleaf; Rate 250 g/ha, Postemergence) | Wheat plant response rating (wheat; [1]) | Wheat plant response rating (wheat; [3]) | Wheat plant response rating (wheat; [5]) | Wheat plant response rating (wheat; [6]) | Plant response rating (0 to 10; 0 is no effect, 10 is complete control), Wheat (wheat; Rate 250 g/ha, Postemergence) | Wild oats plant response rating (wild oat; [1]) | Wild oats plant response rating (wild oat; [5]) | Wild oats plant response rating (wild oat; [6]) | Plant response rating (0 to 10; 0 is no effect, 10 is complete control), Wild oats (wild oat; Rate 250 g/ha, Postemergence)
7: Plant response rating, Rape (rape; [4]) | Redroot pigweed plant response rating (0 to 10 scale) (pigweed; [2])
1: Soybean plant response rating (soybean; [7])
